Assay [1] has as its target T1, angiotensin II type 1 receptor (Oryctolagus cuniculus, UniProt P34976).
T1 construct: By using a specimen of isolated rabbit blood vessels; from tissue; host or cells: rabbit thoracic aorta ring (New Zealand White, male)
T1 sequence (P34976 1-359): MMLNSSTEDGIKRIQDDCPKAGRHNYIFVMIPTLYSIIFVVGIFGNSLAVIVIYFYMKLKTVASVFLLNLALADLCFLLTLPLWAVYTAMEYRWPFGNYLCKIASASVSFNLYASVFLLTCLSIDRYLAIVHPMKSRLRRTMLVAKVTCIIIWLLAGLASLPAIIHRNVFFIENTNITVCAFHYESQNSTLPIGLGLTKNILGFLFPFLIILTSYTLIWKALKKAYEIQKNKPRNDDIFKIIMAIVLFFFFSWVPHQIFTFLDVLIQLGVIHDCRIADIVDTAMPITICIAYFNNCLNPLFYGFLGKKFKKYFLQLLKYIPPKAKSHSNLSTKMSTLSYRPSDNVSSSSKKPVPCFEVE
The assay can be described thus: Angiotensin II antagonistic activity in isolated rabbit blood vessels (angiotensin II-induced contraction of thoracic aorta ring). The settings on record: 0.1 μM compound, angiotensin II (10 nM)-induced contraction, read-out: Angiotensin II activity inhibition rate (%) at 0.1 μM concentration. As to the method: By using a specimen of isolated rabbit blood vessels, antagonistic activity of the compounds of the invention against angiotensin II type 1 receptor was estimated from a dose-response curve of angiotensin II-induced blood vessel contraction. Specifically, the specimen of thoracic aorta ring of a rabbit (New Zealand White: male, 2.4 to 3.0 kg) was suspended in a magnus bath filled with Krebs-Henseleite buffer (composition: 118 mM NaCl, 4.7 mM KCl, 2.55 mM CaCl2, 1.18 mM MgSO4, 1.18 mM KH2PO4, 24.88 mM NaHCO3, and 11.1 mM D-glucose), and angiotensin II (10 nM)-induced contraction was obtained in the presence of the compounds of each example (1 nmol to 10 μmol/L). During the measurement, the inside temperature of the magnus bath was maintained at 37° C. and the bath was continuously ventilated with a sufficient amount of mixed gas (95% O2 and 5% CO2). The angiotensin II-induced contraction was converted into a relative value (%) that is based on the angiotensin II (10 nM)-induced contraction in the absence of the compounds of each example. From the concentration-response curve obtained therefrom, 50% inhibition concentration (IC50 value) was calculated by using SAS Preclinical Package Ver 5.0 (trade name, manufactured by SAS institute Japan Co., Tokyo, Japan), which is a statistical analysis program.

The target of another assay is T2, human PPARγ2 (Homo sapiens, UniProt P37231).
T2 construct: the amino acids 182 to 505 of human PPARγ2; expressed in transfected cells
T2 sequence (P37231 182-505): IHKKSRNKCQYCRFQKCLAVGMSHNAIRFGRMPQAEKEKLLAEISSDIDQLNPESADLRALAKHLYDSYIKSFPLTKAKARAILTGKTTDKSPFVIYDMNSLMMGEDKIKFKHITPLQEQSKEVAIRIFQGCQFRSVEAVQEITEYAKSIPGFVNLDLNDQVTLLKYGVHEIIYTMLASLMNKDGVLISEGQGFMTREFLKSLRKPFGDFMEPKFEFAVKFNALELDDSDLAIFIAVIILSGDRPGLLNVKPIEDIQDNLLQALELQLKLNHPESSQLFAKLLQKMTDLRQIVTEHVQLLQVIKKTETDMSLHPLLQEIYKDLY
The assay can be described thus: PPARγ activation activity, Gal4-PPARγ2 LBD luciferase transfection assay in COST cells. The class given is cell-based. The settings on record: Gal4-human PPARγ2 LBD luciferase reporter, 16 hours, rosiglitazone = 100%. As to the method:
The agonistic activity of the compounds of the invention on PPARγ was measured based on the transfection assay using COST cells (DS Pharma Biomedical Co., Ltd., Osaka, Japan), which are the cell line derived from the kidney of the African green monkey. COST cells were cultured under 5% CO2 concentration, and DMEM medium containing 10% fetal bovine serum, glutamic acid, and antibiotics was used as a medium.
As an expression vector, a chimera in which DNA binding domain of Gal4, which is a yeast transcription factor, and ligand binding domain of human PPARγ2 are fused, i.e., a fused product between the amino acids 1 to 147 of Gal4 transcription factor and the amino acids 182 to 505 of human PPARγ2, was used. Furthermore, as a reporter vector, a firefly luciferase containing five copies of Gal4 recognition sequence in the promoter region was used. Plasmid transfection to the cells was performed according to a method which uses jetPEI (trade name, manufactured by Funakoshi Co., Ltd., Tokyo, Japan). Furthermore, β-galactosidase expression vector was employed as an internal standard.
After the transfection of the cells, the medium was replaced with a DMEM medium (containing 1% serum) added with the compound, and the cells were further cultured for 16 hours. After that, the luciferase activity and β-galactosidase activity in the cell lysis solution were measured.
For the present test, dimethyl sulfoxide (DMSO) was used for dissolution and dilution of the test compounds, and during the cell treatment, the DMSO concentration in DMEM medium (containing 1% serum) was adjusted to 0.1%. As a positive compound, rosiglitazone (trade name, manufactured by ALEXIS Corporation, Switzerland) was used. The luciferase activity (%) of the test compounds (1 to 30 μmol/L) was calculated when the luciferase activity of rosiglitazone (3 to 10 μmol/L) is 100% and the luciferase activity in the absence of the test compound is 0%. The 50% effective concentration of the test compound (EC50, 50% effect concentration) was calculated by using SAS Preclinical Package Ver 5.0 (trade name, manufactured by SAS institute Japan Co., Tokyo, Japan), which is a statistical analysis program.
Under the same condition, the PPARγ activation activity of telmisartan, i.e., EC50, was 1 to 5 μM. In addition, it was confirmed that compounds of Examples not shown in Table 2 also have PPARγ activation activity at a concentration of 30 μM.

SMILES strings stand for the structures.

`CCCCc1nc(C)n(-c2ncc(OC)cn2)c(=O)c1Cc1ccc(-c2ccccc2S(=O)(=O)NC(=O)C2CCCC2)cc1` [Example 4, N-{4′-{[4-butyl-1-(5-methoxypyrimidin-2-yl)-2-methyl-6-oxo-1,6-dihydropyrimidin-5-yl]methyl}biphenyl-2-ylsulfonyl}cyclopentanecarboxamide]: in assay [1], the inhibition at 0.1 µM turned out to be 100%.
In the case of `CCCCc1nc(C)n(-c2ncc(OC)cn2)c(=O)c1Cc1ccc(-c2ccccc2S(=O)(=O)NC(=O)C2CC2)cc1` [Example 3, N-{4′-{[4-butyl-1-(5-methoxypyrimidin-2-yl)-2-methyl-6-oxo-1,6-dihydropyrimidin-5-yl]methyl}biphenyl-2-ylsulfonyl}cyclopropanecarboxamide], the inhibition at 0.1 µM in assay [1] came out at 90%.
The term EC50 denotes the concentration at which the effect is half-maximal. Higher therefore signals weaker potency. `CCCCc1nc(C(C)C)n(-c2ncc(OCC)cn2)c(=O)c1Cc1ccc(-c2ccccc2S(=O)(=O)NC(=O)C2CC2)cc1` [Example 14, N-{4′-{[4-butyl-1-(5-ethoxypyrimidin-2-yl)-2-isopropyl-6-oxo-1,6-dihydropyrimidin-5-yl)methyl)biphenyl-2-ylsulfonyl]cyclopropanecarboxamide] yielded an EC50 on human PPARγ2 of 1360 nM.
As for `CCCCc1nc(C)n(-c2ncc(OC)cn2)c(=O)c1Cc1ccc(-c2ccccc2S(=O)(=O)NC(=O)C2CCCCC2)cc1` [Example 5, N-{4′-{[4-butyl-1-(5-methoxypyrimidin-2-yl)-2-methyl-6-oxo-1,6-dihydropyrimidin-5-yl]methyl}biphenyl-2-ylsulfonyl}cyclohexanecarboxamide], the inhibition at 0.1 µM in assay [1] worked out at 92.4%.
The same measure, in the same setting: in the case of `CCCCc1nc(C)n(-c2ncc(OC)cn2)c(=O)c1Cc1ccc(-c2ccccc2S(=O)(=O)NC(=O)CC)cc1` [Example 1, N-{4′-{[4-butyl-1-(5-methoxypyrimidin-2-yl)-2-methyl-6-oxo-1,6-dihydropyrimidin-5-yl]methyl}biphenyl-2-ylsulfonyl}propionamide] it was 71.7%.
Take `CCCc1nc2c(C)cc(-c3nc4ccccc4n3C)cc2n1Cc1ccc(-c2ccccc2C(=O)O)cc1` [telmisartan, reference compound]: at human PPARγ2, the EC50 was in the range of 1000 to 5000 nM.
Turning to `CCCCCC(=O)NS(=O)(=O)c1ccccc1-c1ccc(Cc2c(CCCC)nc(C)n(-c3ncc(OC)cn3)c2=O)cc1` [Example 2, N-{4′-{[4-butyl-1-(5-methoxypyrimidin-2-yl)-2-methyl-6-oxo-1,6-dihydropyrimidin-5-yl]methyl}biphenyl-2-ylsulfonyl}hexanamide], the inhibition at 0.1 µM in assay [1] was 91.9%.
At human PPARγ2, `CCCCc1nc(CC)n(-c2ncc(OCC)cn2)c(=O)c1Cc1ccc(-c2ccccc2S(=O)(=O)NC(=O)C2CC2)cc1` [Example 13, N-{4′-{[4-butyl-1-(5-ethoxypyrimidin-2-yl)-2-ethyl-6-oxo-1,6-dihydropyrimidin-5-yl]methyl}biphenyl-2-ylsulfonyl}cyclopropanecarboxamide] showed an EC50 of 2790 nM.
For the molecule `CCCCc1nc(C)n(-c2ncc(OCC)cn2)c(=O)c1Cc1ccc(-c2ccccc2S(=O)(=O)NC(=O)C2CCCC2)cc1` [Example 9, N-{4′-{[4-butyl-1-(5-ethoxypyrimidin-2-yl)-2-methyl-6-oxo-1,6-dihydropyrimidin-5-yl]methyl}biphenyl-2-ylsulfonyl}cyclopentanecarboxamide], in assay [1], the inhibition at 0.1 µM was determined as 100%. Moreover, the concentration giving a half-maximal response (EC50) on human PPARγ2 came to 3520 nM.
In the case of `CCCCc1nc(C2CC2)n(-c2ncc(OC)cn2)c(=O)c1Cc1ccc(-c2ccccc2S(=O)(=O)NC(=O)C2CC2)cc1` [Example 15, N-{4′-{[4-butyl-2-cyclopropyl-1-(5-methoxypyrimidin-2-yl)-6-oxo-1,6-dihydropyrimidin-5-yl)methyl)biphenyl-2-ylsulfonyl]cyclopropanecarboxamide], the EC50 at human PPARγ2 was determined as 1050 nM.
With `CCCCc1nc(C)n(-c2ncc(OCC)cn2)c(=O)c1Cc1ccc(-c2ccccc2S(=O)(=O)NC(=O)C2CCCCC2)cc1` [Example 10, N-{4′-{[4-butyl-1-(5-ethoxypyrimidin-2-yl)-2-methyl-6-oxo-1,6-dihydropyrimidin-5-yl]methyl}biphenyl-2-ylsulfonyl}cyclohexanecarboxamide], the inhibition at 0.1 µM in assay [1] was 81.9%.
Regarding `CCCCc1nc(C2CCCCC2)n(-c2ncc(OCC)cn2)c(=O)c1Cc1ccc(-c2ccccc2S(=O)(=O)NC(=O)C2CC2)cc1` [Example 19, N-{4′-{[4-butyl-2-cyclohexyl-1-(5-ethoxypyrimidin-2-yl)-6-oxo-1,6-dihydropyrimidin-5-yl]methyl}biphenyl-2-ylsulfonyl}cyclopropanecarboxamide], at human PPARγ2, the EC50 was determined as 510 nM.
For the molecule `CCCCCC(=O)NS(=O)(=O)c1ccccc1-c1ccc(Cc2c(CCCC)nc(C)n(-c3ncc(OCC)cn3)c2=O)cc1` [Example 7, N-{4′-{[4-butyl-1-(5-ethoxypyrimidin-2-yl)-2-methyl-6-oxo-1,6-dihydropyrimidin-5-yl]methyl}biphenyl-2-ylsulfonyl}hexanamide], in assay [1], the inhibition at 0.1 µM is 89.3%. On human PPARγ2, this molecule registered an EC50 of 2210 nM.
The molecule `CCCCc1nc(C)n(-c2ncc(OC(F)F)cn2)c(=O)c1Cc1ccc(-c2ccccc2S(=O)(=O)NC(=O)C2CC2)cc1` [Example 11, N-{4′-{{4-butyl-1-[5-(difluoromethoxy)pyrimidin-2-yl]-2-methyl-6-oxo-1,6-dihydropyrimidin-5-yl}methyl}biphenyl-2-ylsulfonyl}cyclopropanecarboxamide] showed an EC50 on human PPARγ2 of 3370 nM.
The same measure, in the same setting: in the case of `CCCCc1nc(C2CCC2)n(-c2ncc(OCC)cn2)c(=O)c1Cc1ccc(-c2ccccc2S(=O)(=O)NC(=O)C2CC2)cc1` [Example 17, N-{4′-{[4-butyl-2-cyclobutyl-1-(5-ethoxypyrimidin-2-yl)-6-oxo-1,6-dihydropyrimidin-5-yl]methyl}biphenyl-2-ylsulfonyl}cyclopropanecarboxamide] it was 960 nM; in that of `CCCCc1nc(C2CC2)n(-c2ncc(OCC)cn2)c(=O)c1Cc1ccc(-c2ccccc2S(=O)(=O)NC(=O)C2CC2)cc1` [Example 16, N-{4′-{[4-butyl-2-cyclopropyl-1-(5-ethoxypyrimidin-2-yl)-6-oxo-1,6-dihydropyrimidin-5-yl]methyl}biphenyl-2-ylsulfonyl}cyclopropanecarboxamide], 2350 nM.
On to `CCCCc1nc(C2CCCC2)n(-c2ncc(OCC)cn2)c(=O)c1Cc1ccc(-c2ccccc2S(=O)(=O)NC(=O)C2CC2)cc1` [Example 18, N-{4′-{[4-butyl-2-cyclopentyl-1-(5-ethoxypyrimidin-2-yl)-6-oxo-1,6-dihydropyrimidin-5-yl]methyl}biphenyl-2-ylsulfonyl}cyclopropanecarboxamide], for which the EC50 on human PPARγ2 was determined as 710 nM.

The values above are taken from patent publication US20120122906A1, “NOVEL SULFONAMIDE DERIVATIVE AND PHARMACEUTICAL PRODUCT CONTAINING SAME” (KOWA COMPANY, LTD., priority 2009, published 2012).
